Measurements taken from patent US20170268027A1, “METHOD FOR SYNTHESIS OF FATTY ACIDS” (priority 2014, published 2017).
Like-named read-outs stand apart in the source and are kept apart here.

Legend:
Yarrowia lipolytica W29 = experiment: Culture B: fed-batch culture of Y. lipolytica W29 under nitrogen limitation with cerulenin pulse (growth, fatty acid profile); assay type: cell-based; set-up: Length of the carbon chain: unit not given here
[1] = tested on: Yarrowia lipolytica JMY3501; experiment: Culture D: fed-batch culture of Y. lipolytica JMY3501 with cerulenin pulse (fatty acid profile); assay type: cell-based
Y. lipolytica = experiment: preliminary dose studies of cerulenin on growth of Y. lipolytica; assay type: cell-based, Yarrowia lipolytica; settings: doses tested 1 to 25 mgcerulenin·gx^−1
Candida lypolytica = settings: cited from earlier work
[2] = between injection and 3 h after injection
[3] = −2 h (before the pulse, baseline)

C/C=C/C/C=C/CCC(=O)[C@H]1O[C@H]1C(N)=O [cerulenin]
Degree of unsaturation (Yarrowia lipolytica W29; 0 h (time of the pulse)): 0.95 | Length of the carbon chain (Yarrowia lipolytica W29; 0 h (time of the pulse)): 16.98 | time of appearance of short-chain fatty acids after the pulse (Yarrowia lipolytica W29; 7 mgcerulenin·gx^−1): 15 min | culture time after which the effect of partial inhibition of elongation kinetics disappeared (Yarrowia lipolytica W29; 7 mgcerulenin·gx^−1 pulse): 9 h | increase of mass content of palmitic acid (C16:0) relative to before the pulse (Yarrowia lipolytica W29; 3 h after pulse): 0.014 gAG·gx^−1 | increase of mass content of palmitoleic acid (C16:1) relative to before the pulse (Yarrowia lipolytica W29; 3 h after pulse): 0.023 gAG·gx^−1 | Degree of unsaturation (Yarrowia lipolytica W29; +15 min. after the pulse): 0.92 | Length of the carbon chain (Yarrowia lipolytica W29; +15 min. after the pulse): 16.83 | Degree of unsaturation (Yarrowia lipolytica W29; +1 h after the pulse): 0.73 | Length of the carbon chain (Yarrowia lipolytica W29; +1 h after the pulse): 16.3 | Degree of unsaturation (Yarrowia lipolytica W29; +3 h after the pulse): 0.75 | Length of the carbon chain (Yarrowia lipolytica W29; +3 h after the pulse): 15.3 | accumulation of short-chain fatty acids (Yarrowia lipolytica W29; after 3 h of culture after the pulse of 7 mgcerulenin·gx^−1): 24.5% | mass fraction of the fatty acid C18:3 (Yarrowia lipolytica W29; after the pulse): 6% | mass fraction F4,8 multiplied by (Yarrowia lipolytica W29; at 3 h): 70 | mass fraction F9,12 multiplied by (Yarrowia lipolytica W29; at 3 h): 28 | mass fraction F13,15 multiplied by (Yarrowia lipolytica W29; at 3 h): 15 | factor of multiplication of the specific rate of synthesis of short-chain or medium-chain fatty acid (Yarrowia lipolytica W29; before vs 3 h after the pulse): 14 | average degree of unsaturation of neo-synthesised fatty acids (Yarrowia lipolytica W29; [2]): 0.6 | average number of carbon atoms of neo-synthesised fatty acids (Yarrowia lipolytica W29; [2]): 12.74 carbon atoms | effect on the growth dynamic of the yeast (Yarrowia lipolytica W29; dose 7 μgcerulenin·mgx^−1, nitrogen limitation): no effect | total fatty acids accumulated (Yarrowia lipolytica W29; during the 10 h following the cerulenin pulse): 3% | variation of the growth rate (Yarrowia lipolytica W29; during the 10 h following the first injection, 7 mgcerulenin·gx^−1): less than 5% | specific speed of production of fatty acid (Yarrowia lipolytica W29; following the addition of cerulenin (0.004 before)): 0.0017 gAG·gx·h^−1 | variation of mass content of fatty acids C4:0-C8:0 relative to before the pulse (Yarrowia lipolytica W29; in 3 h): 0.05 gAG·gx^−1 | variation of mass content of fatty acids C9:0-C12:0 relative to before the pulse (Yarrowia lipolytica W29; in 3 h): 0.07 gAG·gx^−1 | variation of mass content of fatty acids C13:0-C15:0 relative to before the pulse (Yarrowia lipolytica W29; in 3 h): 0.07 gAG·gx^−1 | Degree of unsaturation (Yarrowia lipolytica W29; [3]): 0.97 | Length of the carbon chain (Yarrowia lipolytica W29; [3]): 16.97 | effect on accumulation of short-chain fatty acids ([1]; 0.25 mgcerulenin·gx^−1, lipid accumulation phase): increase the accumulation of short-chain fatty acids | C12 content in the fatty acid composition ([1]; after pulse of 0.25 mgcerulenin·gx^−1 (4% before)): 7% | C14 content in the fatty acid composition ([1]; after pulse of 0.25 mgcerulenin·gx^−1 (7% before)): 14% | dose that completely inhibits growth (Y. lipolytica): 15 mgcerulenin·gx^−1 | effect on growth (Candida lypolytica; substrate containing n-tetradecane to n-octadecane): without exerting any effect | effect on growth (Candida lypolytica; substrate containing n-undecane or n-dodecane): completely blocks the growth
